From US9931410B2, “Nanoparticles for targeted delivery of multiple therapeutic agents and methods of use” (priority 2012, dated 2018)

Columns and labels:
[1] = Drug loading and encapsulation efficiency (AAS for platinum, spectrophotometry for irinotecan); assay type: physicochemical
Description: Particle sizing was performed using dynamic light scattering (DLS) with a Zetasizer Nano ZS instrument (Malvern Instruments Ltd., U.K.). For each measurement, 100 μL or more of the sample was loaded in a disposable low-volume cuvette. Transmission electron microscopy (TEM) experiments were carried out on a JEOL 2011 instrument at an acceleration voltage of 200 kV. The TEM sample was prepared by depositing 10 μL of the nanoparticle suspension (1.0 mg/mL) onto a 300-mesh carbon-coated copper grid. Samples were blotted away after 30 minutes incubation and the grids were negatively stained for 20 minutes at room temperature with a sterile-filtered 1% (w/v) uranyl acetate aqueous solution. Drug loading and encapsulation efficiency (EE) were determined by quantifying the amount of drug in the nanoparticles. Drug loading is defined as the mass fraction of the drug in the nanoparticles, whereas EE is the fraction of initial drug that is encapsulated by the nanoparticles. After synthesis, nanoparticles were dissolved in a solution 50/50 acetonitrile/water and vortexed for several hours to induce nanoparticle dissociation. The amount of platinum inside the nanoparticles was detected using Atomic Absorption Spectroscopy (AAS), from which the load of cisplatin was calculated. Irinotecan was detected using spectrophotometry on a TECAN 1000 plate reader at a wavelength of 385 nm. A calibration curve with known concentrations of irinotecan was prepared, and the amount of irinotecan encapsulated in the nanoparticles was calculated using the calibration curve.

[2] = Drug release from nanoparticles over time in phosphate buffered saline; assay type: physicochemical; conditions: PLGA-PEG-LIG nanoparticles, irinotecan to cisplatin ratio 2:1, phosphate buffered saline
Description: FIG. 8 is a graph showing the percent of irinotecan and platinum release from PLGA-PEG-LIG nanoparticles over time in phosphate buffered saline.
Next, the amount of cisplatin and irinotecan encapsulated in the nanoparticles as well their encapsulation efficiency (EE) was determined (FIG. 7). As expected, cisplatin was encapsulated with very high efficiency (>80%) due to the hydrophobic-hydrophobic interaction PLGA and PLA. […] This might be due to hydrophilic-hydrophilic interactions of the platinum prodrug and irinotecan. […] The percent drug release of irinotecan and platinum of these nanoparticles over time was also assessed. Irinotecan was released from these nanoparticles at a faster rate compared to the release of the Pt-containing chemotherapeutic agent (FIG. 8).

[3] = after self-assembly with PLGA-PEG
[4] = mixed with both PLGA-PEG and PLA-cisplatin

Row | SMILES | drug loading of irinotecan [1, 3] [%] | encapsulation efficiency (EE) of irinotecan [1, 3] [%] | drug loading of irinotecan [1, 4] [%] | encapsulation efficiency (EE) of irinotecan [1, 4] [%] | rate of drug release from nanoparticles compared to the Pt-containing agent [2] | encapsulation efficiency of cisplatin ([1]; cisplatin as PLA-cisplatin in nanoparticles) [%]
1 | CCc1c2c(nc3ccc(OC(=O)N4CCC(N5CCCCC5)CC4)cc13)-c1cc3c(c(=O)n1C2)COC(=O)[C@]3(O)CC [Irinotecan, irinotecan] | 0.5 | 10 | 2.2 | 44 | faster rate | 
2 | N.N.[Cl][Pt][Cl] [cisplatin] |  |  |  |  |  | > 80
